How the values were obtained:
[1] = target: T1, monomeric K. phaffii Ero1 (Komagataella phaffii, UniProt F2QNN1, C136A); test: absorbance at […] nm after reflavination and size exclusion; format: binding; details: stoichiometry, no affinity constant; 1:2 molar excess FAD+ overnight on ice, phosphate pH 7.0
T1 construct: His-tagged 1-384 active core, C-terminal amphipathic helix removed, monomer; E. coli BL21(DE3) with CyDisCo

[2] = target: T2, K. phaffii Ero1-Pdi1 complex (wild type) (Komagataella phaffii, UniProt F2QNN1); test: as above; format: binding; details: stoichiometry, no affinity constant; 1:2 molar excess FAD+ overnight on ice, phosphate pH 7.0
T2 construct: 1:1 disulfide-linked heterodimer (Ero1 Cys136-Pdi1 Cys404); His-tagged Ero1 1-384 core without C-terminal amphipathic helix (45 kDa) plus Pdi1 (56 kDa); E. coli BL21(DE3) with customized CyDisCo; with Protein disulfide-isomerase
T2 sequence (F2QNN1 entry or part of it): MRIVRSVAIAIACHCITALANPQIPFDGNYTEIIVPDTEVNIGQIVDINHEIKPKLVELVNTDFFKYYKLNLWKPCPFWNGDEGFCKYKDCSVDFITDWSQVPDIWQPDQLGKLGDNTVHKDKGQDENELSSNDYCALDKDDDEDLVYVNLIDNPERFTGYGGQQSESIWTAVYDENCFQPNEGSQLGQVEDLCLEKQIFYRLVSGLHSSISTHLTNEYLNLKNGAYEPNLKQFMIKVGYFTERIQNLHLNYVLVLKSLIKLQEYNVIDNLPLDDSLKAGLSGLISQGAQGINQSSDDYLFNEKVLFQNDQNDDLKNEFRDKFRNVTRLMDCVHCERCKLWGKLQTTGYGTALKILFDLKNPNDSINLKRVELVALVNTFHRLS
T2 sequence (F2QY05 entry or part of it, further chain): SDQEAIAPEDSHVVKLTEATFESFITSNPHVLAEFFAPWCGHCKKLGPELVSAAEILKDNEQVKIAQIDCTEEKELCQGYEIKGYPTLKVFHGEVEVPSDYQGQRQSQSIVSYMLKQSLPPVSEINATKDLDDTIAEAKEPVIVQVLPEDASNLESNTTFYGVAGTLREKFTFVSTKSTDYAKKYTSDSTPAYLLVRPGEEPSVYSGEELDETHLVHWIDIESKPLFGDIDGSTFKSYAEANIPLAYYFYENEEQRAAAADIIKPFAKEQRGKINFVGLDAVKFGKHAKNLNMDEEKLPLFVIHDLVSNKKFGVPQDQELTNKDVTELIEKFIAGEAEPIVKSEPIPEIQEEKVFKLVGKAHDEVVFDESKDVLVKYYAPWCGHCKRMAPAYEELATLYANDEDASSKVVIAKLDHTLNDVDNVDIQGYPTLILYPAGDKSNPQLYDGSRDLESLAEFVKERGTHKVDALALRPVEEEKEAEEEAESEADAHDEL

T1 sequence (F2QNN1 entry or part of it C136A): as the sequence (F2QNN1 entry or part of it) above, with C136A counted along it

Compound: Cc1cc2nc3c(=O)[nH]c(=O)nc-3n(C[C@H](O)[C@H](O)[C@H](O)COP(=O)(O)OP(=O)(O)OC[C@H]3O[C@@H](n4cnc5c(N)ncnc54)[C@H](O)[C@@H]3O)c2cc1C [FAD+]
- FAD+ molecules per monomer [1]: 0.85 ± 0.04 molecules per monomer
- FAD+ molecules per complex [2]: 0.93 ± 0.05 molecules per complex
